Laboratory results from patent US20230293535A1, “ERBB/BTK INHIBITORS” (Dizal (Jiangsu) Pharmaceutical Co., Ltd., priority 2018, published 2023).

Tests used:
[1] = biological target: T1, Phospho-BTK (Tyr223) (Homo sapiens, UniProt Q06187); test: p-BTK assay in Ramos cells (HTRF Phospho-BTK Tyr223); format: cell-based; details: pervanadate stimulated, read-out: p-BTK (Romas) IC50
T1 construct: endogenous in cells; host or cells: Ramos
Protocol: The assay plates were then incubated for 30 minutes at 37° C., 5% CO2. 300 uM Per vanadate (3X) was added to each well and the assay plates were again incubated for 60 minutes at 37° C., 5% CO2. Phospho-BTK (Tyr223) is detected using the HTRF® reagents (Cisbio) according to the manufacturer’s one-plate assay protocol.

[2] = system: DB cells; test: BTK (wt) cell proliferation, DB (CellTiter-Glo, 72 h); format: cell-based; details: Homo sapiens, DB, DB cells, CellTiter-Glo, read-out: Non-BCR activated DB GI50;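 note: DB cells in 384-well plates given a dilution series of compound, viable cells read by ATP luminescence, growth expressed versus DMSO control after subtracting a time-zero plate reading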
[3] = system: OCI-LY-10 cells; test: BTK (wt) cell proliferation, OCI-LY-10 (CellTiter-Glo, 72 h); format: cell-based; details: Homo sapiens, OCI-Ly10, 72 h, OCI-LY-10 cells, 72 h, CellTiter-Glo; read-out: BTK WT OCI-LY-10 GI50;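 note: viable cells quantified via cellular ATP luminescence, proliferation given as percent of DMSO control after subtracting a duplicate plate read at time of dosing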
[4] = system: NCI-H1975 EGFR L858R/T790M cells; test: Cell proliferation, NCI-H1975 EGFR L858R/T790M (CellTiter-Glo, 72 h); format: cell-based; details: Homo sapiens, NCI-H1975, 72 h, NCI-H1975, 72 h proliferation; read-out: EGFR L858R and T790M mutation GI50;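 note: viable cells quantified by luciferase-based ATP luminescence, proliferation expressed relative to DMSO-treated wells (100%) after subtracting a parallel plate read at the time of dosing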
[5] = biological target: T2, EGFR L858R&T790M (Homo sapiens, UniProt P00533, L858R/T790M); test: EGFR L858R and T790M cellular phosphorylation inhibition in NCI-H1975 (MSD); format: cell-based; details: NCI-H1975 cells, 4 h compound, p-EGFR(Y1068)/total EGFR; read-out: EGFR L858R and T790M mutation IC50;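 note: phosphorylated and total EGFR detected by electrochemiluminescence, cells exposed to compound in medium containing 1% FBS at 37 °C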
T2 construct: host or cells: NCI-H1975
Protocol: One day before the test, WT or mutant cells were seeded in 96 well plates at appropriate concentrations with corresponding growth media supplemented with 1% FBS, and incubated overnight. The next day, tested compounds at a series of concentrations were added into each individual well of the plates, and the plates were incubated for 4 h at 37° C. with 5% CO2.
The EGFR (Y1068) phosphorylation level (activity) of cells in each well were then measured with MSD kit named “MULTI-SPOT®96 4-Spot HB Prototype EGFR Triplex [sequence]: pEGFR(Tyr1068),pEGFR(Tyr1173), Total EGFR” according to the manufacturer’s instruction (MESO SCALE DISCOVERY, Cat# N45ZB-1). The assay is an electrochemiluminescent method for determining both phosphorylated and total EGFR of cells with an MSD SECTOR® Imager and the ratio of p-EGFR/total EGFR can be generated by the machine. The Her2 (Y1248) phosphorylation level (activity) of cells in each well were measured with MSD Kit named “Phospho-ErbB2 (Tyr1248) Assay Whole Cell Lysate Kit” according to the manufacturer’s instruction (MESO SCALE DISCOVERY, Cat# K151CLD-3). The assay is an electrochemiluminescent method (MESO SCALE DISCOVERY) for determining both phosphorylated and total Her2 of cells with an MSD SECTOR® Imager and then the ratio of p-Her2/total Her2 can be generated by the machine.

[6] = biological target: T3, BTK (Homo sapiens, UniProt Q06187); test: BTK target site occupancy ELISA (PBMC); format: cell-based; details: BTK receptor occupancy
Protocol: (§1) An enzyme-linked immunosorbent assay (ELISA) method for the detection of free uninhibited Btk in mouse and human lysates. Human or mouse whole blood were incubated with compound for 2 hour at 37° C. Whole blood were lysed in ice-cold lysis buffer containing 50 mM Tris-HCl, pH 7.5, 150 mM NaCl, 1 mM EDTA,1% Triton X-100. […] Samples were transferred to a streptavidin-coated 96-well ELISA plate and mixed while shaking for 1 hour at room temperature. The α-Btk antibody (1:500; clone number D3H5, Cell signaling Technology, Danvers, MA, USA) was then added to the well and incubated for 1 hour at room temperature. After wash, goat α-rabbit-FW (1:5000 dilution in PBS+ 0.05% Tween-20 + 1% BSA) was added to each well and incubated for 1 h at room temperature. The ELISA was developed with addition of tetramethyl benzidine (TMB) followed by Stop Solution and read at OD 450 nm.

[7] = system: WT EGFR cell line A-431; test: Cell proliferation, WT EGFR A431 (CellTiter-Glo, 72 h); format: cell-based; details: Homo sapiens, A-431, 72 h, A431, 72 h proliferation; read-out: EGFR WT A431 GI50;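 note: proliferation from a luminescent ATP viability signal, expressed as 100 × (treated minus time-zero plate) over (DMSO control minus time-zero plate), cells grown with 10% FBS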
[8] = biological target: T3, BTK; test: BTK target site occupancy ELISA (Ramos); format: cell-based; design: endogenous in cells; host or cells: Ramos; details: BTK receptor occupancy, read-out: Occupancy (Romas) IC50
Protocol: as §1

[9] = system: TMD-8 cells; test: BTK (wt) cell proliferation, TMD-8 (CellTiter-Glo, 72 h); format: cell-based; details: Homo sapiens, TMD8, 72 h, TMD-8 cells, 72 h, CellTiter-Glo; read-out: BTK WT TMD-8 GI50;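 note: viable cells quantified by ATP-based luminescence, proliferation expressed as percent of DMSO control after subtracting a time-zero baseline plate read at dosing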
[10] = biological target: T4, human Her2 exon 20 insertion mutation YVMA (Homo sapiens, UniProt P04626, INS775YVMA); test: Her2 Exon 20 YVMA insertion cellular phosphorylation inhibition (MSD p-Her2 Y1248/total Her2); format: cell-based; details: Her2 YVMAins cells, 4 h compound;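 note: lentivirally transduced NIH-3T3 cells in 1% FBS medium, electrochemiluminescent MSD read-out, graded compound concentrations at 37 °C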
T4 construct: expressed in transfected cells; host or cells: NIH-3T3, lentiviral transduction, puromycin selection

[11] = system: Ba/F3 EGFR ASV ins cells; test: Cell proliferation, Ba/F3 EGFR ASV ins (CellTiter-Glo, 72 h); format: cell-based; details: Ba/F3 EGFR, 72 h, Ba/F3 EGFR ASV ins, 72 h proliferation; read-out: EGFR Exon20 ASV insertion GI50;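 note: IL3-independent Ba/F3 cells transduced with EGFR V769_D770insASV, cellular ATP luminescence after compound exposure, growth relative to DMSO control with the day-0 baseline reading subtracted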
Protocol: WT or mutant cells were seeded in 384 well plates at appropriate concentrations with corresponding growth media supplemented with 10% FBS, for each experiment, identical plates were prepared in duplicates, and the plates were incubated overnight. On the next day, one of each duplicated plates was dosed with tested compounds at a series of concentrations, and another one of the duplicated plate was analysied for G0 value. The dosed plates were incubate for another 72 h at 37° C. with 5% CO2 and the number of viable cells in each well of the G0 plates or the dosed plates were measured by CellTiter-Glo® Luminescent Cell Viability Assay (Promega). This assay is a luminescent method for determining the number viable cells through measurement of cellular ATP concentration by detection of luciferase activity. Detection reagents (15 µl) was dispensed into per well, and the plates were incubate for 30 min at room temperature. Then, the luminescence in each well was measured using the Envision plate reader (PerkinElmer). The percentage of proliferation was calculated based on the formula: %Proliferation= 100 × (G3 value of sample well-Go value)/(G3 value of DMSO control-Go value).

[12] = biological target: T5, human EGFR exon 20 V769_D770insASV (Homo sapiens, UniProt P00533, INS769ASV); test: EGFR Exon20 ASV insertion cellular phosphorylation inhibition (MSD pEGFR Y1068/total EGFR); format: cell-based; details: Ba/F3 EGFR ASV ins cells, 4 h compound, p-EGFR(Y1068)/total EGFR;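 note: electrochemiluminescent readout on an MSD SECTOR Imager, IL3-independent transduced cells in medium with 1% FBS, compound concentration series at 37 °C and 5% CO2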
T5 construct: expressed in transfected cells; host or cells: Ba/F3 (DSMZ ACC-300), lentiviral transduction, puromycin selection, IL3 depletion

[13] = biological target: T6, WT EGFR (Homo sapiens, UniProt P00533); test: WT EGFR cellular phosphorylation inhibition in A-431 (hEGF stimulated, MSD); format: cell-based; details: A431 cells, 4 h compound, then 100 ng/ml hEGF 10 min;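 note: electrochemiluminescence read-out of EGFR Tyr1068 phosphorylation expressed as ratio to total EGFR, cells kept in medium with 1% FBS, compounds tested as a concentration series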
T6 construct: host or cells: A-431

[14] = system: Ba/F3 EGFR NPH ins cells; test: Cell proliferation, Ba/F3 EGFR NPH ins (CellTiter-Glo, 72 h); format: cell-based; details: Ba/F3 EGFR, 72 h, Ba/F3 EGFR NPH ins, 72 h proliferation; read-out: EGFR Exon20 NPH insertion GI50;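 note: IL3-independent cells carrying constitutively phosphorylated EGFR, compound dilution series, viable cells quantified by ATP luminescence, growth relative to DMSO wells after subtracting pre-dosing (day 0) baseline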
[15] = biological target: T7, human EGFR exon 20 H773_V774insNPH (Homo sapiens, UniProt P00533, INS773NPH); test: EGFR Exon20 NPH insertion cellular phosphorylation inhibition (MSD pEGFR Y1068/total EGFR); format: cell-based; details: Ba/F3 EGFR NPH ins cells, 4 h compound, p-EGFR(Y1068)/total EGFR;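 note: IL3-independent Ba/F3 cells with constitutively phosphorylated EGFR, compound exposure at 37 °C under 5% CO2, electrochemiluminescent MSD measurement of the p-EGFR to total EGFR ratio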
T7 construct: host or cells: Ba/F3

[16] = system: NSCLC with EGFR sensitizing, double or uncommon mutation; test: Anti-tumor activity in NSCLC patients with EGFR mutation beyond Exon20ins; format: in vivo, human; details: 50-400 mg once daily oral
Protocol: Compound 52 was explored at 50 mg, 100 mg, 200 mg, 300 mg and 400 mg once daily with oral administration in 12 non-small cell lung cancer (NSCLC) patients with EGFR sensitizing mutation (L858R or 19del), sensitizing (L858R or 19del) and T790M double mutation (double mutation) or less common non-resistant mutation (uncommon mutation, including Gly719Xaa, Leu861Gln, or Ser768Ile mutation). […] In 2 patients with uncommon mutation, 1 SD and 1 PD was observed after Compound 52 treatment.

[17] = In vitro human hepatocytes clearance assay; details: both, human, cryopreserved human hepatocytes (suspension), human hepatocytes Clint (µL/min/10^6cells), mixed gender human hepatocytes, incubation up to 100 min
Protocol: The protocol for rat/human hepatocytes metabolic stability assay is employed to determine the clearance of the compounds of the present disclosure in vitro.
Rat hepatocytes in male gender and human hepatocytes in mixed gender were obtained from commercial vendors (e.g., BioreclamationIVT) and stored at -150° C. prior to use. 10 mM stock solutions of tested compounds were prepared in DMSO. Thawing medium and supplement incubation medium (serum-free) were placed in a 37° C. water bath for at least 15 minutes prior to use. Stock solutions were diluted to 100 µM by combining 198 µL acetonitrile and 2 µL of 10 mM stock solution.
Vials of cryopreserved hepatocytes were removed from storage, ensured that vials remain at cryogenic temperatures. The vials were thawed in a 37° C. water bath with gently shaking. Vials were kept in water bath until all ice crystals had dissolved and were no longer visible. Vials were sprayed with 70% ethanol before being transferred to a biosafety cabinet. And then the contents were poured into the 50 mL thawing medium conical tube. Vials were centrifuged at 100 g for 10 minutes at room temperature.
Cell viability and density were counted using a Trypan Blue exclusion, and then cells were diluted with serum-free incubation medium to a working cell density of 1 × 10^6 viable cells/ml. […] The inactivated hepatocytes were used to prepare negative samples, which were used to exclude the misleading factor that resulted from instability of chemical itself.
Aliquots of 247.5 µL hepatocytes were dispensed into each well of a 96-well non-coated plate. The plate was placed in the incubator on an orbital shaker for approximately 10 minutes. Aliquots of 2.5 µL of the 100 µM test compounds were added into respective wells of the non-coated 96-well plate to start the reaction. This assay was performed in duplicate. The plate was incubated in the incubator on an orbital shaker for the designed time points. […] Samples were centrifuges for 20 minutes at 4000 g and aliquots of 100 µL of the supernatants were used for LC-MS/MS analysis for measurement of test compounds
In vitro hepatocyte clearance was estimated based on determination of elimination half-life (T½) of compounds disappearance from their initial concentrations. Peak area ratios of each compound (test or control) to IS was calculated. Ln (%Control) versus Incubation Time (min) curve was plotted, and the slope of a linear fitting line was calculated.

[18] = Rat pharmacokinetic study after oral administration (SOA); format: in vivo; details: male Han Wistar rats
Protocol: For rat pharmacokinetic studies, six male Han Wistar rats were purchased from Beijing Vital River and orally dosed with the test compound at 10 mg/kg in 0.5% Tween-80 and 0.5% hydroxypropyl methylcellulose (v/w). At, 0.5, 1, 2, 4, 7 and 16 hours post-dose, blood samples (>100 µL/time point) were collected from portal vein and via cardiac puncture into separate K2EDTA […] tubes, and then immediately centrifuged at 1500 g, 5 min at 4° C. to separate plasma. The plasma samples were deproteinized with 4 fold acetonitrile (including internal standard), vortex for 10 min and centrifuges for 10 minutes at 4000 g at 4° C.. The supernatantswere submitted to LC/MS/MS (API 5500, Applied Biosystems, Foster City) analysis. Two sets of standard curves were run at the beginning and end of each batch from plasma sample analysis.
Compound absorption was measured by portal vein AUC (AUCHPV) and systemic AUC (AUCSYS) observed maximum concentration (Cmax) in rats after oral administration. Dose is the actual dose used in SOA study. Find below in Table 9 data for exemplary tested compounds.

[19] = 2 patients with uncommon mutation
[20] = 4 NSCLC patients with EGFR sensitizing mutation
[21] = 5 NSCLC patients with EGFR double mutation

T1 sequence (Q06187 whole entry): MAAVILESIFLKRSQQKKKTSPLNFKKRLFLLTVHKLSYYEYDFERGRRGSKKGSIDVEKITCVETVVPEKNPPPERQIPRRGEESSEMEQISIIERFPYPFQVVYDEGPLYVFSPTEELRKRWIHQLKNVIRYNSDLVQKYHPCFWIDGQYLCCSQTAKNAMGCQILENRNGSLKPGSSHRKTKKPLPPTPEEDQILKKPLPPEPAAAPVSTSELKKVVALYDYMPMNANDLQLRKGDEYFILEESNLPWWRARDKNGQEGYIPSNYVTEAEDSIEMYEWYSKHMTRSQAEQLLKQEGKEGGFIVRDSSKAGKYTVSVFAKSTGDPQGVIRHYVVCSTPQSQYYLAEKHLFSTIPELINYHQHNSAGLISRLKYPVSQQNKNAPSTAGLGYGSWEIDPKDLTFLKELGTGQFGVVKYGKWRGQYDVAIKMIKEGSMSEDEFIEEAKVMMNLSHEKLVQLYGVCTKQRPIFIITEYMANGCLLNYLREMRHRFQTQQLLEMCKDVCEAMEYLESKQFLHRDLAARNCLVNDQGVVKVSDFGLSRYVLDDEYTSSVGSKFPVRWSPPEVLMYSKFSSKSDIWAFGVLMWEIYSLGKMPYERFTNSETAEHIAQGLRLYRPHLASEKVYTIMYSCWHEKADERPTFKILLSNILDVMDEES
T3 sequence (Q06187 whole entry): as above
T2 sequence (P00533 25-1210 T790M/L858R): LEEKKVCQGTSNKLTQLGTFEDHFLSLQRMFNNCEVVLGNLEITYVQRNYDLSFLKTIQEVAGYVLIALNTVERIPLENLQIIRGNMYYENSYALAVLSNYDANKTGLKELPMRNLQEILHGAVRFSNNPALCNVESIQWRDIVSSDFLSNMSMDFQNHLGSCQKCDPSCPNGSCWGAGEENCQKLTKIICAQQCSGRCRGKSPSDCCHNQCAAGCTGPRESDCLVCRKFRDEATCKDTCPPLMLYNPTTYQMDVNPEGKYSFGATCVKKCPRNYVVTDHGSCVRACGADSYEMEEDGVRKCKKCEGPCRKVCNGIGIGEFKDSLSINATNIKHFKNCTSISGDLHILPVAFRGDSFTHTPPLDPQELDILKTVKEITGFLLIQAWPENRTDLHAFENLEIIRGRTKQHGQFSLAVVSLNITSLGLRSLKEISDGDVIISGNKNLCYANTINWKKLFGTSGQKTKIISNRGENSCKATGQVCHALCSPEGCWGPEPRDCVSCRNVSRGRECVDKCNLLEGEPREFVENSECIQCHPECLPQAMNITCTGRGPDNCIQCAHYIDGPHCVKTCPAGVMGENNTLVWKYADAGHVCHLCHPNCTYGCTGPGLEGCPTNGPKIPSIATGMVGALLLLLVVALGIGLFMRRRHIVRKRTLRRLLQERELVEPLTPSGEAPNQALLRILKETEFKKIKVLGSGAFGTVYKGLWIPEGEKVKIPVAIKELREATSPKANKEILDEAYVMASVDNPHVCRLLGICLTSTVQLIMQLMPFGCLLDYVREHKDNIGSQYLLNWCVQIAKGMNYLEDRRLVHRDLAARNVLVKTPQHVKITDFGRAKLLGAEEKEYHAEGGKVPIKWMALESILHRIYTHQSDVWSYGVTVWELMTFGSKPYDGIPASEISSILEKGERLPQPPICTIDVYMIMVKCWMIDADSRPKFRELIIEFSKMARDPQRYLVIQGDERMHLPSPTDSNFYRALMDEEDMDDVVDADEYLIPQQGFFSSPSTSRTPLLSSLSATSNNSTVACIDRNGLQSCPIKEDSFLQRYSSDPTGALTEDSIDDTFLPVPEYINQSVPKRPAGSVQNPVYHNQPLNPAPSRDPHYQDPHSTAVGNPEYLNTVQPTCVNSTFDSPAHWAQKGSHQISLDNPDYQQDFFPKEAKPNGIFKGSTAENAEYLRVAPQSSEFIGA
T4 sequence (P04626 with tags, fused parts or gaps INS775YVMA): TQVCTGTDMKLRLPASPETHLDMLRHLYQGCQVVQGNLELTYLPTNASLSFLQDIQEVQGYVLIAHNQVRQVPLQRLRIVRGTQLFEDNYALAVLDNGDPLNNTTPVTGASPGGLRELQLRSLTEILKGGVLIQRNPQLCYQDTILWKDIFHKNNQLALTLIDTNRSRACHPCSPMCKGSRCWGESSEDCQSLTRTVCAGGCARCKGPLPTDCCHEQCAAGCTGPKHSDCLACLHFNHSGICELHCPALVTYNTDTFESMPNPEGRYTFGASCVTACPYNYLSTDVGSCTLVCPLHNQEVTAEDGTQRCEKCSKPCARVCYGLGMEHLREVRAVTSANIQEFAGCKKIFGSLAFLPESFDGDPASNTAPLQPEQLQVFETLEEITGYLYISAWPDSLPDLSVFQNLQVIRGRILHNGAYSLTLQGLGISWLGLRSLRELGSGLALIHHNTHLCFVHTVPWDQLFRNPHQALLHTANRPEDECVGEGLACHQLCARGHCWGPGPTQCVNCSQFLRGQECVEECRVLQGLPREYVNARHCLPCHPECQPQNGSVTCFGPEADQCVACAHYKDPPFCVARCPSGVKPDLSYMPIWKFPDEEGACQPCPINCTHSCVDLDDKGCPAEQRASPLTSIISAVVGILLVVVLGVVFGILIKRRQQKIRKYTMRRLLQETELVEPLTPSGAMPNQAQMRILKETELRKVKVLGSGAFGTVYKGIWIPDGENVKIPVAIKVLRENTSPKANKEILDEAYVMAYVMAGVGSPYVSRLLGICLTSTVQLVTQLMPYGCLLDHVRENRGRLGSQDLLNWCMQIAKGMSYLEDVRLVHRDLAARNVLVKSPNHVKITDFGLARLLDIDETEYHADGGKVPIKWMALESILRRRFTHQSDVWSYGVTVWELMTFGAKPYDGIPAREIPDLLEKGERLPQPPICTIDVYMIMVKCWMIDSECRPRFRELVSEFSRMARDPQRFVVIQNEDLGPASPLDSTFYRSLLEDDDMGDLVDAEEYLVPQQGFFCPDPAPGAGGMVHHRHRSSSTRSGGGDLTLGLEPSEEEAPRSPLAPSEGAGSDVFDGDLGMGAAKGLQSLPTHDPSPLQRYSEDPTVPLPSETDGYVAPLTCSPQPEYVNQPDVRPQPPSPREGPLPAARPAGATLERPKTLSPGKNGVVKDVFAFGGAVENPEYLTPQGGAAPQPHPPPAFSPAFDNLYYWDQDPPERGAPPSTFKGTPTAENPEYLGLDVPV
T5 sequence (P00533 with tags, fused parts or gaps INS769ASV): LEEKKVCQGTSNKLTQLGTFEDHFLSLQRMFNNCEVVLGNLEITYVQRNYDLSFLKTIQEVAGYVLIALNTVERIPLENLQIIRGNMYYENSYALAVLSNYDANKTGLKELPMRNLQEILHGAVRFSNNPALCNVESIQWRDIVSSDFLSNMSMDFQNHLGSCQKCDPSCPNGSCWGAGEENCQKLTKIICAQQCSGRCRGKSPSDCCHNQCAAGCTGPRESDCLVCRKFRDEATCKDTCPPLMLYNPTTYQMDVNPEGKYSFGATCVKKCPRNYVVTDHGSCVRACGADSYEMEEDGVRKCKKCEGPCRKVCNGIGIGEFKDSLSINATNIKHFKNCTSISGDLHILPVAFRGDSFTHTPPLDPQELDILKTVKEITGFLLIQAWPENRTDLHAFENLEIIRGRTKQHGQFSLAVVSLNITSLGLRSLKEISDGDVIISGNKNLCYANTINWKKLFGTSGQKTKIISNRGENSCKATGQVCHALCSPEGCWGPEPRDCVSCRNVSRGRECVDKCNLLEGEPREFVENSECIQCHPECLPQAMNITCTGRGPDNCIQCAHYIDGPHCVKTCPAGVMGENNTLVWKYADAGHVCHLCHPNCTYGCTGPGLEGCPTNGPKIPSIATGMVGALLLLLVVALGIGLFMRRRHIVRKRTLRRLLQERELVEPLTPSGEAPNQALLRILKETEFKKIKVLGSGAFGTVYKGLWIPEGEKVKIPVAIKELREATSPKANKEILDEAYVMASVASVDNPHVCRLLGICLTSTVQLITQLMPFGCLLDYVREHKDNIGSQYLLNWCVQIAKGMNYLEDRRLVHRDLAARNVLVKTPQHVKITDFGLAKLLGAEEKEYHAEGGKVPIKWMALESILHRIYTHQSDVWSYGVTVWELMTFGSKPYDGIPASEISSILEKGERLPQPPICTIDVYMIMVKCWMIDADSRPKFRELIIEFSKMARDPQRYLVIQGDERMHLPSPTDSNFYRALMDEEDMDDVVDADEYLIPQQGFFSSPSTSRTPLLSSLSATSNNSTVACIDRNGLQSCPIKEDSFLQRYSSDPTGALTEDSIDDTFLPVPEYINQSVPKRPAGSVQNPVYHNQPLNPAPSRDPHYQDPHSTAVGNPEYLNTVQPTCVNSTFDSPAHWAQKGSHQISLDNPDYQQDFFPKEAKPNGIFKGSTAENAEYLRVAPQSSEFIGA

C=CC(=O)Nc1cc(Nc2nccc(Nc3cc(Cl)c(F)cc3C(C)(C)O)n2)c(OC)cc1N1CC[C@@H](N(C)C)C1 [Compound 52, (R)-N-(5-(4-(5-chloro-4-fluoro-2-(2-hydroxypropan-2-yl)phenylamino)pyrimidin-2-ylamino)-2-(3-(dimethylamino)pyrrolidin-1-yl)-4-methoxyphenyl)a crylamide]
IC50 [1]: 2.9 nM
GI50 [2]: 1980 nM
GI50 [3]: 3.2 nM
GI50 [4]: 3.3 nM
IC50 [5]: 1.1 nM
IC50 [6]: 2.9 nM
GI50 [7]: 47.1 nM
IC50 [8]: 0.6 nM
GI50 [9]: 5.8 nM
IC50 [10]: 7.5 nM
GI50 [11]: 83.2 nM
IC50 [12]: 20.4 nM
IC50 [13]: 80.4 nM
GI50 [14]: 60.4 nM
IC50 [15]: 20.4 nM
patients with PD [16, 19]: 1
patients with SD [16, 19]: 1
patients with PD [16, 20]: 1
patients with SD [16, 20]: 2
patients with best response of PR [16, 20]: 1
patients with best response of partial response (PR) [16, 21]: 2
patients with progressive disease (PD) [16, 21]: 2
hepatocyte CLint at 1 µM [17]: 3.29 µL/min/1e6 cells
SOA DN AUCSYS (ng·h/mL)/(mg/kg) ([18]; dose-normalised systemic AUC): 103 (ng·h/mL)/(mg/kg)
Cmax ([18]; rat, plasma, nominal 10 mg/kg (actual dose in c1)): 99 ng/mL
